Values quoted from earlier work, collected in paper PMC1892056, “Barusiban suppresses oxytocin-induced preterm labour in non-human primates” (BMC Pregnancy and Childbirth, 2007).
Several values for one entry are separate records, joined by “and”; a condition that tells them apart may be missing. Equal values may be shown once. Read-outs that look alike come from different tables or passages of the source.

What was measured:
[1] = tested on: pregnant cynomolgus monkeys; parameters: method as in PMID 16914691; conditions: for Treatment days until delivery / end of treatment: continuous IV infusion from ca. GD 141, daily OT challenge, barusiban group delivered after the end of treatment; for Basal overall IUP before the daily OT challenges compared to control: during continuous barusiban or fenoterol treatment; for Day of delivery: gestational day, barusiban 150 μg kg^-1 h^-1 or fenoterol 3 μg kg^-1 h^-1 continuous infusion from ca. GD 141, daily OT challenge
Text: Background Preterm labour (PTL) is a major cause of neonatal mortality and morbidity, and oxytocin (OT) antagonists are potential tocolytics. Atosiban (TRACTOCILE) is a mixed vasopressin V1A/OT antagonist registered for acute treatment of PTL in Europe. […] Barusiban is a selective OT antagonist which has reached clinical development. A monkey model with OT-induced PTL was developed to compare barusiban and atosiban. In addition, the feasibility for long-term treatment of PTL with barusiban was explored.

[2] = pregnant cynomolgus monkeys, IV high- or low-dose bolus or infusion, plasma, LC-MS/MS
Text: Table 1 Summary of barusiban and atosiban PK/PD characteristics | column: Barusiban; Atosiban

[3] = tested on: pregnant cynomolgus monkeys; conditions: for Potency (IC50): calculated PK/PD potency (plasma concentration) for inhibition of OT-induced IUP, IV bolus or infusion; for Duration of action / Efficacy (decrease in IUP) / Onset of action: overall results for IV high- or low-dose bolus or infusion; for Duration of effect on IUP after high-dose infusion: two-hour high-dose IV infusion, barusiban 150 μg kg^-1 h^-1, atosiban 250 μg kg^-1 h^-1
Text: Table 1 Summary of barusiban and atosiban PK/PD characteristics | column: Barusiban; Atosiban || Background Preterm labour (PTL) is a major cause of neonatal mortality and morbidity, and oxytocin (OT) antagonists are potential tocolytics. Atosiban (TRACTOCILE) is a mixed vasopressin V1A/OT antagonist registered for acute treatment of PTL in Europe. Other off-label drugs have serious side effects. Barusiban is a selective OT antagonist which has reached clinical development. A monkey model with OT-induced PTL was developed to compare barusiban and atosiban. In addition, the feasibility for long-term treatment of PTL with barusiban was explored. Methods Conscious pregnant cynomolgus monkeys ... || Following induction of stable contractions by OT, barusiban or atosiban were administered as high- or low-dose bolus or infusion. […] However, barusiban's duration of action was generally longer than 13–15 hours, while atosiban's effect ceased within 1.5–3 hours (Table 1). The calculated potency of barusiban was about four times higher than the potency of atosiban. || (+ 1 further places)

[4] = tested on: human cloned OT receptor; conditions: selectivity OT receptor over V1A receptor
Text: Barusiban is a new long-acting OT receptor antagonist developed for PTL. It is a cyclic heptapeptide and an analogue of endogenous OT designed for longer duration of action. This could provide the convenience of less frequent administration in the clinic. Barusiban has approximately 300-fold greater affinity for the human cloned OT receptor than for the V1A receptor, whereas atosiban binds well to both receptors. […] It has reached phase II of clinical developmen ...

[5] = tested on: pregnant cynomolgus monkeys
Text: Background Preterm labour (PTL) is a major cause of neonatal mortality and morbidity, and oxytocin (OT) antagonists are potential tocolytics. Atosiban (TRACTOCILE) is a mixed vasopressin V1A/OT antagonist registered for acute treatment of PTL in Europe. Other off-label drugs have serious side effects. Barusiban is a selective OT antagonist which has reached clinical development. A monkey model with OT-induced PTL was developed to compare barusiban and atosiban. In addition, the feasibility for long-term treatment of PTL with barusiban was explored. Methods Conscious pregnant cynomolgus monkeys ... || Figure 2 Oxytocin-induced uterine contractions in cynomolgus monkeys. Individual infusion of 5–90 mU OT kg^-1 h^-1 induced stable uterine contractions of about 15–40 mmHg. No short- or long-term desensitisation of OT-induced contractions was observed. On the background of these stable OT-induced contractions, different tocolytics have been evaluated in terms of their PK/PD characteristics. Here two monkeys were infused in parallel for about 11 hours during the night. The switch-off the lights in the evening (06:00 PM) and switch-on the lights (06:00 AM) is labelled by respective symbols.

[6] = pregnant cynomolgus monkeys, OT-induced contractions

Compound	Treatment days until delivery / end of treatment [1]	Basal overall IUP before the daily OT challenges compared to control [1]	Day of delivery [1] [days]	Clearance [2] [mL/min/kg]	Distribution [2] [mL/kg]	Half-life [2] [min]	Potency (IC50) [3] [µg/mL]	Duration of action [3, 6] [h]	Onset of action [3, 6] [h]	Duration of effect on IUP after high-dose infusion ([3]; n = 3)	also measured
CC(Cc1ccc(O)cc1)NCC(O)c1cc(O)cc(O)c1 (stereo not drawn) [fenoterol, reference compound]	~17 days	unchanged	~154	–	–	–	–	–	–	–	–
Atosiban [reference compound]	–	–	–	8.98 to 15.6	359 to 640	27.6 to 39.6	0.0474	1 to 3	≤0.5 to 1.0	3 h	Efficacy (decrease in IUP) [3, 6]: ≤96%; Efficacy (decrease in IUP) ([3]; pregnant cynomolgus monkeys, OT-induced contractions, listed as atosiban): > 95%
Barusiban	approximately 23 days	unchanged	~163	0.417 to 1.1	70 to 159	87.6 to 154	0.0127	> 13 to 15	≤0.5 to 1.5	more than 14 h	Affinity for the human cloned OT receptor relative to the V1A receptor [4]: approximately 300 fold; Potency relative to atosiban ([3]; calculated potency of barusiban versus atosiban, OT-induced contractions): about four; Reversibility of inhibition of contractions ([3]; high-dose barusiban bolus, then escalating high-dose OT rescue infusion (133–2000 mU kg^-1 h^-1)): reversible with high-dose OT; Tolerability ([3]; pregnant cynomolgus monkeys): well tolerated; Duration of action ([3]; pregnant cynomolgus monkeys, OT-induced contractions, listed as barusiban): 13 to 15 h and > 13 h; Time to decrease in IUP compared with OT control levels ([3]; two hour high-dose IV infusion of barusiban at 150 μg kg^-1 h^-1, n = 3): ≤ 0.5 h; Days with statistically lower IUP than the control group ([1]; barusiban 150 μg kg^-1 h^-1 continuous IV infusion, daily 3–6 h OT infusion): 8/17; Rise in overall IUP during OT infusion ([1]; barusiban 150 μg kg^-1 h^-1 continuous infusion, OT control about fourfold increase): 30%; Days with statistically lower IUP than the fenoterol group ([1]; barusiban 150 μg kg^-1 h^-1 versus fenoterol 3 μg kg^-1 h^-1, continuous IV infusion, daily 3–6 h OT infusion): 11/17
oxytocin [OT]	–	–	–	–	–	–	–	–	–	–	Desensitisation of OT-induced contractions ([5]; OT infusion 5–90 mU kg^-1 h^-1, short- and long-term): no OT-related desensitization occurred; Induced uterine contractions (IUP) ([5]; individual OT infusions at 5–90 mU kg^-1 h^-1): 15–40 mmHg
